Data on 26 compounds can be found in paper PMC7947296, “p-Terphenyls From Aspergillus sp. GZWMJZ-055: Identification, Derivation, Antioxidant and α-Glycosidase Inhibitory Activities” (Frontiers in Microbiology, 2021).

“And” between values parts separate entries of the source, which are not always exact repeats. Equal entries are not always repeated.

Data set [1] in a line: DPPH radical-scavenging assay. Conditions: DPPH 0.15 mM in MeOH, 30-min incubation in the dark at rt, absorbance 517 nm. How it is done: The anti-oxidative activity of compounds was also evaluated by 2,2-diphenyl-1-picrylhydrazyl (DPPH) radical-scavenging assay ([Wang et al., 2007]). The experiment was divided into the following five groups, blank (methanol, MeOH), sample (mix compound and DPPH solution), background (pure compound solution), negative (pure DPPH solution), and positive [mix vitamin C (VC) and DPPH solution] controls. DPPH (0.15 mM), compounds (1–100 μM), and VC (1–100 μM) that was regarded as a compound sample in the following procedures all were dissolved in MeOH. Each 160 μL of MeOH was placed in negative control and blank groups, while each 160 μL of testing compounds or VC was placed in sample and background groups. Then, MeOH (each 40 μL) was, respectively, added to blank and background groups, while 40 μL of DPPH was, respectively, added to negative, positive, and sample controls. After 30-min incubation in the dark at rt, the decrease in DPPH radical concentration was monitored by measuring the absorbance at λ 517 nm with a microplate reader (Multiskan Spectrum, Thermo Scientific Varioskan LUX). The DPPH radical-scavenging rate was calculated as:
Scavenging rate (%)=[(Anegative-Ablank)-(Asample-Abackground)]/(Anegative-Ablank)×100%.

Data set [2] can be described thus: Oxygen radical absorbance capacity (ORAC) assay. Conditions: trolox equivalents; tested at 6.25 μM (compounds 4–7), 12.5 μM (1–3, 8–16), 25.0 μM (17–25); PBS pH 7.4, 37°C. How it is done: The anti-oxidative activity of compounds was evaluated by ORAC assay ([Huang et al., 2002]) that was carried out mainly by using 2,2′-azobis(2-amidinopropane) dihydrochloride (AAPH, 153.0 μM), fluorescein (FL, 81.6 nM), testing compounds, and trolox as a positive control, all of which were dissolved in phosphate buffer solution (PBS, 75 mM, pH 7.4). The concentrations were 6.25 μM for compounds 4–7 and trolox, 12.5 μM for compounds 1–3, 8–16 and trolox, and 25.0 μM for compounds 17–25 and trolox, respectively (Supplementary Figure 36). In short, each 25 μL of testing compounds, blank (PBS), negative (PBS) and trolox, and 150 μL of FL were added in each well and incubated at 37°C for 10 min. Each 25 μL of AAPH was then added to the testing compounds, blank and trolox groups, and 25 μL of PBS was added to the negative group. Fluorescence intensity of each well was measured one time every 1 min for 90 cycles using a Fluoroskan Ascent FL plate-reader (Thermo Scientific Varioskan LUX) at excitation of λ 485 nm and emission of λ 530 nm. The relative fluorescence intensity f was equaled to the ratio of the absolute fluorescence reading to the initial fluorescence reading, and the net area under curve (AUC) was obtained by subtracting the AUC of the blank from that of the compound. The AUC was calculated as 0.5 + f1 +… fi +… + f89 + 0.5 × f90, in which fi means the ratio of fluorescence reading at time i to the initial fluorescence reading. The final ORAC values were calculated as micromole of trolox equivalents per micromole of the compound (μmole TE/μmole) by using a regression equation between the trolox concentration and the net area under the FL decay curve. That is, the relative ORAC value = (AUCcompound – AUCblank)/(AUCtrolox – AUCblank).

Data set [3] can be described thus: Cytotoxic effects on caco-2 cells by CTG assay. It is filed as cell-based. Conditions: human, 72 h incubation, read-out: inhibitory rate (cytotoxicity to caco-2 cells). How it is done:
The cytotoxic effects on the coca-2 cells were evaluated by the CTG assay ([Elisia and Kitts, 2008]; [Wang et al., 2019]). Briefly, coca-2 cells were seeded in 96-well plates at a density of 2 × 10^3 cells/well and treated with the final concentration of 1.0 μM of the compounds. After 72 h incubation, 100 μL of CTG solution (Promega) was added into each well. The luminescence value was tested by using a microplate reader (BioTek Synergy H1) after staying at rt for 10 min.

In data set [4] the target is α-glucosidase from Saccharomyces cerevisiae (Saccharomyces cerevisiae, UniProt P53341). Briefly: biochemical.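 Also: 15 min preincubation at 37 °C, then 30 min with PNPG substrate at 37 °C, inhibition computed from absorbance versus drug-free blank.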
α-glucosidase from Saccharomyces cerevisiae, sequence (P53341 whole entry): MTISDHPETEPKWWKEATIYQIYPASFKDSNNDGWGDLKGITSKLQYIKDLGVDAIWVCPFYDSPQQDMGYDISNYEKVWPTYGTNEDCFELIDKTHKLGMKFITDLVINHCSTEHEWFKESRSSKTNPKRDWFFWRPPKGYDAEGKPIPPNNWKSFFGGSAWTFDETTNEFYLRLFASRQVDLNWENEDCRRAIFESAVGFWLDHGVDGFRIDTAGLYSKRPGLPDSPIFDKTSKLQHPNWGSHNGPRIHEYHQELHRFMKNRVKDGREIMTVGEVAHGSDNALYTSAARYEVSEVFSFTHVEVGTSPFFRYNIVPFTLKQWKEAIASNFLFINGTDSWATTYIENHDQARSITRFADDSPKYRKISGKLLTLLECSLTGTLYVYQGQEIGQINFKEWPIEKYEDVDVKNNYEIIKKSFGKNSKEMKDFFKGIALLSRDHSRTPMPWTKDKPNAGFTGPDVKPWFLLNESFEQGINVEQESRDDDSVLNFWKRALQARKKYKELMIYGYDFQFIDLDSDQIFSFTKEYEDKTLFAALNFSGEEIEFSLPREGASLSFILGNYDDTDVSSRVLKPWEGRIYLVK
Experimental: After incubation for 15 min at 37°C, 20 μL of PNPG solution was added to each well of testing groups and further incubated at 37°C for 30 min. Finally, 80 μL of Na2CO3 solution was added to each well to stop the reaction and the absorbance was measured by a microplate reader (Multiskan Spectrum, Thermo Scientific Varioskan LUX) at λ 405 nm.

For the compound `COc1c(-c2ccc(O)cc2)cc(OC)c2c1oc1cc(O)c(O)cc12` [Compound 15, candidusin A], the IC50 in data set [1] was 3.6 ± 0.06 µM; in data set [4] it was 13.1 ± 0.2 µM. Moreover, in data set [2], the “ORAC (μMole TE/μMole)” value is on record as 2.1 ± 0.06 μMole TE/μMole. Further, the inhibition at 72 h, 1 µM in data set [3] came out at 20.5%.
Turning to `COc1cc(-c2c(OC)cc(-c3ccc(O)cc3)c(OC)c2O)ccc1OCC=C(C)C` [Compound 13, 3-methoxyterprenin], the half-maximal inhibitory concentration (IC50) in data set [1] was greater than 100 µM; in data set [4] it was 152 ± 9.6 µM. The “ORAC (μMole TE/μMole)” value in data set [2] came out at 0.4 ± 0.07 μMole TE/μMole.
On the same counts, the results for `O=C1C=C(c2ccc(O)c(O)c2)C(=O)C(O)=C1c1ccc(O)c(O)c1` [Compound 22] are 1.7 ± 0.02 µM, 10.1 ± 0.1 µM and 2.8 ± 0.3 μMole TE/μMole.
As for `O=C1C=C(c2ccc(O)cc2)C(=O)C(O)=C1c1ccc(O)c(O)c1` [Compound 21], the results for the IC50 in data set [1] and in data set [4] were 1.6 ± 0.04 µM and 4 ± 0.08 µM, respectively. Further, the “ORAC (μMole TE/μMole)” value in data set [2] is given as 3.9 ± 0.1 μMole TE/μMole. Further, the inhibition at 72 h, 1 µM in data set [3] was determined as 1.2%.
For `COc1cc(-c2ccc(O)c(CC=C(C)C)c2)c(OC)c(O)c1-c1ccc(O)c(O)c1` [Compound 12, prenylterphenyllin A], the IC50 is 1.6 ± 0.02 µM in data set [1] and 64.4 ± 1.2 µM in data set [4]. For the same compound, the “ORAC (μMole TE/μMole)” value in data set [2] is reported as 1.4 ± 0.01 μMole TE/μMole.
Regarding `COc1cc(-c2ccc(O)cc2)c(OC)c(O)c1-c1ccc(O)c(O)c1` [Compound 6, 3-hydroxyterphyllin], the IC50 stood at 1.4 ± 0.01 µM in data set [1] and 10.9 ± 1.3 µM in data set [4]. In data set [2], the “ORAC (μMole TE/μMole)” value was 5.7 μMole TE/μMole and 5.7 ± 0.3 μMole TE/μMole. Further, the inhibition at 72 h, 1 µM in data set [3] amounted to 0.2%.
For the compound `O=C1C=C(c2ccc(O)cc2)C(=O)C(O)=C1c1ccc(O)cc1` [Compound 20], the IC50 in data set [1] came to 5.9 ± 0.08 µM; in data set [4], 8.9 ± 0.4 µM. In addition, the “ORAC (μMole TE/μMole)” value in data set [2] is 6.1 μMole TE/μMole and 6.1 ± 0.2 μMole TE/μMole. In addition, the inhibition at 72 h, 1 µM in data set [3] worked out at 0.4%.
Regarding `COc1cc(-c2ccccc2)c(OC)c(O)c1-c1ccc(O)cc1` [Compound 8, 4″-deoxyterphenyllin], the results for the IC50 in data set [1] and in data set [4] were 57.8 ± 0.8 µM and 130 ± 3.5 µM, respectively. Besides, in data set [2], the “ORAC (μMole TE/μMole)” value is reported as 0.5 ± 0.01 μMole TE/μMole.
Take `COc1c(-c2ccc(O)c(O)c2)cc(OC)c2c1oc1cc(O)c(O)cc12` [Compound 16, candidusin B]: the IC50 in data set [1] was 3.2 ± 0.1 µM; in data set [4], 7.9 ± 0.3 µM. For the same compound, the “ORAC (μMole TE/μMole)” value in data set [2] is recorded as 2.0 ± 0.06 μMole TE/μMole. The inhibition at 72 h, 1 µM in data set [3] stood at 2.7%.
As for `COc1cc(-c2ccccc2)c(OC)c(O)c1-c1ccc(O)c(CC=C(C)C)c1` [Compound 11, 4″-deoxyprenylterphenyllin], the 50% inhibitory concentration (IC50) in data set [1] was determined as 1.6 ± 0.01 µM; in data set [4] it was 34.4 ± 1.1 µM. Moreover, the “ORAC (μMole TE/μMole)” value in data set [2] turned out to be 1.2 ± 0.5 μMole TE/μMole.
Regarding `COc1cc(-c2ccc(O)c(O)c2)c(OC)c(O)c1-c1ccc(O)c(O)c1` [Compound 7, 3,3″-dihydroxyterphyllin], the results for the IC50 in data set [1] and in data set [4] were 1.1 ± 0.03 µM and 18.3 ± 0.9 µM, respectively. Further, the “ORAC (μMole TE/μMole)” value in data set [2] was 4.5 μMole TE/μMole and 4.5 ± 0.4 μMole TE/μMole. Moreover, in data set [3], the inhibition at 72 h, 1 µM was 0.5%.
In data set [1], `O=C1O[C@H]([C@@H](O)CO)C(O)=C1O` [VC, vitamin C, reference compound] displayed a half-inhibitory concentration (IC50) of 2.8 ± 0.03 µM.
As to `COc1cc(-c2ccc(O)cc2)c(OC)c(O)c1-c1ccc(O)cc1` [Compound 5, terphenyllin], the IC50 in data set [1] turned out to be 10.9 ± 0.3 µM; in data set [4] it was 2.8 ± 0.2 µM. The “ORAC (μMole TE/μMole)” value in data set [2] is 6.0 μMole TE/μMole and 6.0 ± 0.09 μMole TE/μMole. Besides, the inhibition at 72 h, 1 µM in data set [3] worked out at 0.4%.
For the compound `COc1cc(-c2ccc(O)cc2)c(OC)c(OC)c1-c1ccc(O)cc1` [Compound 10, 3′-O-methylterphenyllin], the values for the half-maximal inhibitory concentration (IC50) in data set [1] and in data set [4] were greater than 100 µM and greater than 500 µM, respectively. Further, the “ORAC (μMole TE/μMole)” value in data set [2] was 0.5 ± 0.03 μMole TE/μMole.
On the same counts, the results for `COc1cc(-c2ccccc2)c(OC)c(OC)c1-c1ccc(O)cc1` [Compound 3, 4″-deoxy-2′-methoxyterphenyllin] are greater than 100 µM, greater than 500 µM and 2.1 ± 0.5 μMole TE/μMole.
On the same counts, the results for `COc1c(-c2ccccc2)cc(OC)c2c1oc1cc(O)c(O)cc12` [Compound 14, 4″-deoxycandidusin A] are 4 ± 0.2 µM, 128 ± 2.3 µM and 0.4 ± 0.06 μMole TE/μMole.
On the same counts, the results for `COc1cc(-c2ccc(OC(C)=O)cc2)c(OC)c(OC(C)=O)c1-c1ccc(OC(C)=O)c(OC(C)=O)c1` [Compound 24] are 37.8 ± 0.1 µM, greater than 500 µM and 0.8 ± 0.07 μMole TE/μMole.
For `COc1cc(-c2ccc(O)cc2)c(OC)c(O)c1-c1ccccc1` [Compound 2, 4-deoxyterphenyllin], the results for the IC50 in data set [1] and in data set [4] were greater than 100 µM and 239 ± 5.9 µM, respectively. In addition, the “ORAC (μMole TE/μMole)” value in data set [2] is listed as 1.2 ± 0.09 μMole TE/μMole.
On the same counts, the results for `COc1cc(-c2c(OC)cc(-c3ccccc3)c(OC)c2O)ccc1OCC=C(C)C` [Compound 1, 3-O-methyl-4″-deoxyterprenin] are greater than 100 µM, greater than 500 µM and 1.0 ± 0.04 μMole TE/μMole.
On the same counts, the results for `COc1cc(-c2ccccc2)c(OC)c(O)c1-c1ccc(O)c(O)c1` [Compound 9, 4″-deoxy-3-hydroxyterphenyllin] are 1.9 ± 0.04 µM, 464 ± 23.6 µM and 0.5 ± 0.06 μMole TE/μMole.
Take `COc1cc(-c2ccc(OC(C)=O)cc2)c(OC)c(OC(C)=O)c1-c1ccc(OC(C)=O)cc1` [Compound 23]: the 50% inhibitory concentration (IC50) in data set [1] is greater than 100 µM; in data set [4] it was greater than 500 µM. Moreover, the “ORAC (μMole TE/μMole)” value in data set [2] was found to be 0.1 ± 0.01 μMole TE/μMole.
In the case of `Oc1ccc(-c2cc(O)c(-c3ccc(O)c(O)c3)c(O)c2O)cc1` [Compound 18], the 50% inhibitory concentration (IC50) in data set [1] amounted to 3.7 ± 0.07 µM; in data set [4], 25 ± 0.8 µM. In addition, in data set [2], the “ORAC (μMole TE/μMole)” value stood at 3.7 ± 0.1 μMole TE/μMole.
For `Oc1ccc(-c2cc(O)c(-c3ccc(O)c(O)c3)c(O)c2O)cc1O` [Compound 19], the 50% inhibitory concentration (IC50) in data set [1] was 1.8 ± 0.04 µM; in data set [4], 19.4 ± 0.1 µM. The “ORAC (μMole TE/μMole)” value in data set [2] amounted to 2.6 ± 0.1 μMole TE/μMole.
On the same counts, the results for `COc1cc(-c2ccc(OC(C)=O)c(OC(C)=O)c2)c(OC)c(OC(C)=O)c1-c1ccc(OC(C)=O)c(OC(C)=O)c1` [Compound 25] are 11 ± 0.1 µM, greater than 500 µM and 1.7 ± 0.07 μMole TE/μMole.
Take `COc1cc(-c2ccc(O)cc2)c(O)c(O)c1-c1ccc(O)cc1` [Compound 4, 5′-methoxy-[1,1′:4′,1″-terphenyl]-2′,3′,4,4″-tetraol]: the half-inhibitory concentration (IC50) in data set [1] turned out to be 1.7 ± 0.02 µM; in data set [4], 5.9 ± 0.6 µM. In data set [2], the “ORAC (μMole TE/μMole)” value was 6.8 μMole TE/μMole and 6.8 ± 0.05 μMole TE/μMole.
Take `Oc1ccc(-c2cc(O)c(-c3ccc(O)cc3)c(O)c2O)cc1` [Compound 17]: the results for the half-inhibitory concentration (IC50) in data set [1] and in data set [4] were 5.3 ± 0.06 µM and 25.1 ± 0.7 µM, respectively. Also, the “ORAC (μMole TE/μMole)” value in data set [2] is 4.8 μMole TE/μMole and 4.8 ± 0.3 μMole TE/μMole.

Broadly, the IC50 is the concentration that inhibits the measured activity by half.
